# Test results reported in patent US4879382A, “Pyrido(3,4-f)pyrrolo(1,2-b)(1,2,5)triazepines” (Hoechst-Roussel Pharmaceuticals, Inc., priority 1988, dated 1989).
# How the values were obtained:
# [1] = phenyl-p-quinone writhing assay (analgesic activity); type: in vivo, mice (Charles River, CD-1); settings: mice
# Method: The compounds of this invention are useful as analgesic agents due to their ability to alleviate pain in mammals. The procedure employed to determine analgetic utility is a modification of the phenyl-p-quinone writhing assay in mice, a standard assay for analgetic activity [Proc. Soc. Exptl. Med., 95 729 (1957)]. Pursuant to the modified procedure phenyl-p-benzoquinone (Eastman, 12.5 mg) is dissolved in 5 ml of 95% ethanol and the solution is diluted to a total volume of 100 ml with distilled water. The solution is administered to the subject mice intraperitoneally at a dose of 10 ml per kg of body weight. A characteristic "writhe", an inward rotation of one or more feet with twisting and turning of the trunk, drawing in of the abdominal wall, lordosis and arching of the back, is produced.
# A total of 28 male mice (Charles River, CD-1), weighing 18 to 30 grams, are employed for a time response. The subject animals receive food and water ad libitum. Test compounds are dissolved in distilled water, or suspended in distilled water containing one drop of a suitable surfactant, such as Tween-80.
# Four groups of five animals (20 animals) are given the test compound subcutaneously (s.c.) or perorally (p.o.) at 15, 30, 45 and 60 minutes prior to administration of the phenyl-p-benzoquinone. A control group (2 animals per group) receive an equal volume of the vehicle. After the administration of the phenyl-p-benzoquinone, the mice are placed separately in one liter beakers, and after five minutes, are observed for ten minutes. The number of writhes for each animal is recorded. Thefollowing formula is used to compute the percent inhibition: [formula]
# A dose range determination is run in the same manner as the time response except 10 animals per group are tested at the peak time of test drug activity. Fifty animals, 4 test drug groups, and a vehicle control are employed. Animals are dose and tested in a randomized manner. The time period with the greatest percent of inhibition is considered the peak time.
# [2] = dark avoidance assay (memory enhancing activity); type: in vivo; settings: mice
# Method: Pursuant to the dark avoidance assay, mice are tested for their ability to remember an unpleasant stimulus for a period of 24 hours. A mouse is placed in a chamber that contains a dark compartment; a strong incandescent light drives it to the dark compartment, where an electric shock is administered through metal plates on the floor. The animal is removed from the testing apparatus and tested again, 24 hours later, for the ability to remember the electric shock.
# [3] = tetrabenazine induced ptosis assay (antidepressant activity); type: in vivo, mice (Charles River, CD-1); settings: mice; for ED50: Mus musculus, ip, dose for 50% inhibition of tetrabenazine-induced ptosis
# Method: Several of the compounds of this invention are also useful as antidepressants by virtue of their ability to elicit an antidepressant response in mammals. Antidepressant activity is determined by the tetrabenazine induced ptosis assay in mice, [International Journal of Neuropharmacology, 8, 72 (1969], a standard assay for the determination of antidepressant activity. […] Tetrabenazine methanesulfonate (76.78% as the free base) is dissolved in distilled water and the concentration of the solution is adjusted so that the dose, administered intraperitoneally (i.p.) to the animals, is 40 mg of tetrabenazine base per kg of animal body weight. The test compound is administered intraperitoneally (i.p.) or orally to the subject animals, and the tetrabenazine solution is administered 30 minutes or 60 minutes, respectively, thereafter. Tetrabenazine solution and the solvent used to dissolve, or suspend, the test compounds are administered by the same route and at the same intervals as the test compounds to a control group. […] The vehicle-control group score is used as a determination of the validity of each test. The results are discarded and the test is repeated, if the control score is determined to be less than 17. […] A linear-regression analysis is used to estimate ED50 values and 95% confidence limits.
# [4] = adjuvant-induced polyarthritis syndrome in rats assay (antiinflammatory activity); type: in vivo, rats (Charles River-Wistar Lewis); settings: Rattus norvegicus, po, 504 h, read-out: Non-Injected Paw ED50
# Method: Several of the compounds of this invention have utility as antiinflammatory agents. Antiinflammatory activity was measured pursuant to the adjuvant-induced polyarthritis syndrome in rats assay by a procedure similar to that described by C. M. Pearson and F. D. Wood, Arthritis and Rheumatism, 2, 440 (1959).
# Groups of 10 male Charles River-Wistar Lewis rats weighing 150 to 175 g were individually housed and maintained on a regular rat chow diet. Water was given ad libitum. The adjuvant was prepared by suspending 75 mg of Mycobacterium butyricum (Difco Laboratories, Detroit, Mich.) in 10 ml of white paraffin oil with continuous stirring for 2 hours at room temperature prior to administration. Test compounds are prepared by suspending the drug in water, adding one drop of Tween 80 per 10 ml of suspension, and homogenizing. The adjuvant suspension (0.1 ml) was injected into the footpad of the left hind paw of the rat. Test compound suspensions were administered orally (10 ml/kg) the day before adjuvant suspension injection and the administration was continued daily for 21 days. […] Injected and non-injected paw volumes were determined on the day the adjuvant suspension was given, and on subsequent days thereafter (usually days 5, 10, 18, and 21) by the method of C. […]
# The percent inhibition of paw volume (injected and non-injected paw) were calculated by the following formula: [formula] […]
compound,measurement,setting,value
"CNC(=O)N1Cc2cccn2N(C)c2ccncc21.O=C(O)/C=C\C(=O)O [10,11-Dihydro-5-methyl-11-methylcarbamyl-5H-pyrido[3,4-f]pyrrolo[1,2-b][1,2,5]triazepine maleate]","% Inhibition of Writhing at a Screening Dose of 20 mg/kg, s.c.",[1],44%
"CNC(=O)Oc1ccc2c(c1)[C@]1(C)CCN(C)[C@@H]1N2C [physostigmine, reference compound]",% of Animals With Scopolamine Induced Memory Deficit Reversed,[2]; 0.31 mg/kg s.c.,20%
"CC1Nc2cnccc2N(C)n2cccc21 (centres unmarked) [10,11-Dihydro-5,10-dimethyl-5H-pyrido[3,4-f]pyrrolo[1,2-b][1,2,5]triazepine]",inhibition of ptosis,[3]; at a dose of 10 mg/kg i.p.,47%
same,% of Animals With Scopolamine Induced Memory Deficit Reversed,[2]; 2.5 mg/kg s.c.,33%
"CN(C)CCC=C1c2ccccc2CCc2ccccc21 [amitryptyline, reference compound]",ED50,[3],1.5 mg/kg
"CC(=O)Oc1ccccc1C(=O)O [Aspirin, reference compound]",ED50,[4],110 mg/kg
"CN1c2ccncc2NC(c2ccccc2)c2cccn21 (centres unmarked) [10,11-dihydro-5-methyl-10-phenyl-5H-pyrido[3,4-f]pyrrolo[1,2-b][1,2,5]triazepine]","% Inhibition of Writhing at a Screening Dose of 20 mg/kg, s.c.",[1],47%
"CN1c2ccncc2NCc2cccn21 [10,11-Dihydro-5-methyl-5H-pyrido[3,4-f]pyrrolo[1,2-b][1,2,5]triazepine]",% Inhibition of Writhing,[1]; at a dose of 12.6 mg/kg s.c. (footnote 1),50%
"CN(C)CCCC1Nc2cnccc2N(C)n2cccc21 (centres unmarked) [10,11-Dihydro-5-methyl-10-[3-(N,N-dimethylamino)propyl]-5H-pyrido[3,4-f]pyrrolo[1,2-b][1,2,5]triazepine]",% of Animals With Scopolamine Induced Memory Deficit Reversed,[2]; 1.25 mg/kg s.c.,27%
same,"% Inhibition of Writhing at a Screening Dose of 20 mg/kg, s.c.",[1],57%
"CN1c2ccncc2N(C=O)Cc2cccn21.O=C(O)/C=C\C(=O)O [11-Formyl-10,11-dihydro-5-methyl-5H-pyrido[3,4-f]pyrrolo[1,2-b][1,2,5]triazepine maleate]","% Inhibition of Writhing at a Screening Dose of 20 mg/kg, s.c.",[1],47%
"CN1CCC(C2Nc3cnccc3N(C)n3cccc32)CC1 (centres unmarked) [10,11-Dihydro-5-methyl-10-[(1-methyl)piperidin-4-yl]-5H-pyrido[3,4-f]pyrrolo[1,2-b][1,2,5]triazepine]",ED50,"[4]; rats, p.o., daily for 21 days, dose for 50% inhibition of adjuvant induced inflammation, non-injected paw",53.7 mg/kg
same,ED50,[3],15.7 mg/kg
"CC(C)=CCN1CCC2(C)c3cc(O)ccc3CC1C2C (centres unmarked) [Pentazocine, reference compound]",% Inhibition of Writhing,[1]; at a dose of 1.3 mg/kg s.c. (footnote 2),50%
